Patent publication US11084829B2, “Ubiquitin-specific-processing protease 7 (USP7) modulators and uses thereof” (RAPT THERAPEUTICS, INC., priority 2018, dated 2021)

Assays:
Assay type in all cases: cell-based
H526 cells [1] = test: Compound synergy (Bliss independence) in H526 cells
Method: CHP-134 was purchased from Sigma Aldrich, MOLM-13 was purchased from AddexBio, and NB-1 was purchased from Sekisui XenoTech. All other cell lines were purchased from American Type Culture Collection. For all cell lines, identity was confirmed by short tandem repeat profiling and culturing was performed in recommended growth medium. For studies evaluating cellular effects of compound treatment, 250 to 2,000 cells in 40 μl of recommended medium were seeded per well in 384-well plates (Corning 3764). DMSO-solubilized compounds were added in duplicate in a two-fold dilution series using a D300e Digital Dispenser (Hewlett-Packard). Following a 5-day incubation, cell viability was measured using CellTiter-Glo (Promega) following the manufacturer's instructions. Luminescence was measured using a CLARIOstar plate reader (BMG LABTECH) and normalized to that of DMSO-treated cells. IC50 values were determined by non-linear regression using a 4-parameter fit in Prism (GraphPad Software). Inhibitor profiling of the 430-cell line panel was conducted and analyzed similarly.
Cancer Cell Line Encyclopedia (CCLE) mutation data was downloaded from https://data.broadinstitute.org/ccleiCCLE_DepMap_18Q2_maf_20180502.txt.gz. Genes were considered mutated if they were annotated in CCLE as containing variants that were either a TCGA Hotspot, a COSMIC Hotspot, or a deleterious variant. Genes with at least 6 mutated cell lines out of the 397 cell lines that overlapped with the cell line screening panel were tested one gene at a time in linear models or coordinately in multivariate models where the fraction cell signal at 1 μM compound was the dependent variable. For compound synergy analysis, a Bliss-independence model was used. Briefly, the products of the fraction of maximal cell signal for each of the tested compounds alone were calculated as the expected signal in the absence of any compound interaction. The log2 of the ratio of expected:observed signal was calculated to indicate synergy (positive) or interference (negative) interactions. For in vivo studies, interval-censored survival analysis was performed using the icenReg package (reference: https://cran.r-project.org/web/packages/icenReg/citation.html), using the “ic_par” parametric regression model with proportional hazards and a Weibull distribution.
Tests were conducted to determine whether the USP7 inhibitor 3-((7-(5-chloro-3-methyl-2-(((R)-morpholin-2-yl)methyl)phenyl)thieno[3,2-b]pyridin-2-yl)methyl)-6,6-dimethyl-3-azabicyclo[3.1.0]hexane-2,4-dione potentiates the activity of DNA-damaging agents commonly used for small cell lung cancer chemotherapy, namely carboplatin, doxorubicin, and the PARP inhibitor olaparib.
The effect of combining the USP7 inhibitor 3-((7-(5-chloro-3-methyl-2-(((R)-morpholin-2-yl)methyl)phenyl)thieno[3,2-b]pyridin-2-yl)methyl)-6,6-dimethyl-3-azabicyclo[3.1.0]hexane-2,4-dione with the PIM kinase inhibitor AZD 1208, the PI3K inhibitor pictilisib and the PI3K inhibitor taselisib in the p53 mutant H526 cell line was tested. […] Both PIM and PI3K promote the activity of mammalian target of rapamycin (mTOR), which regulates cellular protein translation and controls phosphorylation of S6 at the Ser235/236 site.

[2] = tested on: phosphorylated histone H2AX (γ-H2AX); test: γ-H2AX measurement (flow cytometry)
Method: (§1) For Western blotting, compound-treated cells were lysed in RIPA lysis buffer (ThermoScientific) containing Halt Protease and Phosphatase Inhibitor Cocktail (Life Technologies). Lysates were quantified using the BCA protein assay (Pierce) and equivalent protein was separated by SDS-PAGE (4-12%, ThermoScientific). Following electrophoresis, proteins were transferred to PVDF membranes. […] Caspase activation assays were performed on compound-treated cells using the Caspase-Glo 3/7 Assay Kit (Promega) according to the manufacturer's protocol, and luminescence was measured using a CLARIOstar plate reader (BMG LABTECH). […] Data were collected using FACSCanto (Becton Dickinson) and Attune (Thermo Fisher Scientific) flow cytometers and analyzed with FlowJo software (FlowJo LLC). […] Lysates were quantified using the BCA protein assay (Pierce) and equivalent protein was used in the PathScan Phospho-S6 Ribosomal Protein (Ser235/236) Sandwich ELISA Kit (Cell Signaling) according to the manufacturer's protocol. Absorbance was measured using the Spectramax 300 plate reader (Molecular Devices). […]

[3] = tested on: phosphorylated S6 (Ser235/236); test: Phospho-S6 ELISA; conditions: treatment with the compound alone
Method: as §1

H526 cells [4] = test: Apoptosis (caspase-3/7 induction, sub-G1 population) in H526 cells; conditions: starting 72 hours post treatment, data not shown
Method: as §1

H526 cells [5] = test: RNASeq transcriptomic profiling and gene set enrichment in H526 cells; conditions: treatment for 24 or 48 hours
Method: RNA was extracted from approximately 1 million cells using the Allprep DNA/RNA Mini Kit (Qiagen). Whole transcriptome non-stranded libraries were prepared using the TruSeq RNA Library Prep Kit v2 (Illumina). Sequencing was performed on Illumina NovaSeq using paired-end mode, 200 cycles, targeting 40 million reads per sample, by MedGenome. Sequencing results were processed on the Seven Bridges Genomics platform through Kallisto Quant (version 0.43.1) aligning to the gencode.v27 transcript reference. Aligned reads were imported by tximport (version 1.10.1) and Treatment fold change and significance were calculated with DESeq2 (version 1.22.2) with an experimental design of “˜Time+Treatment+Time: Treatment” on genes with at least 10 counts. Shrunk log 2 fold changes (lfcShrink function, type=“apeglm”) were used for significance calculation.
In order to identify pathways impacted by USP7 inhibition, RNASeq was used to profile transcriptomic changes in H526 cells following treatment with the USP7 inhibitor 3-((7-(5-chloro-3-methyl-2-(((R)-morpholin-2-yl)methyl)phenyl)thieno[3,2-b]pyridin-2-yl)methyl)-6,6-dimethyl-3-azabicyclo[3.1.0]hexane-2,4-dione for 24 or 48 hours. […] Measurement of transcriptional changes prior to 72 hours should thus uncover programs triggered by USP7 inhibition without being confounded by apoptosis pathways themselves. […]

Cc1cc(Cl)cc(-c2ccnc3cc(CN4C(=O)C5C(C4=O)C5(C)C)sc23)c1C[C@@H]1CNCCO1 (stereo partly drawn) [3-((7-(5-chloro-3-methyl-2-(((R)-morpholin-2-yl)methyl)phenyl)thieno[3,2-b]pyridin-2-yl)methyl)-6,6-dimethyl-3-azabicyclo[3.1.0]hexane-2,4-dione]
synergy with carboplatin (H526 cells [1]; combination with carboplatin): modest synergy | synergy with doxorubicin (H526 cells [1]; combination with doxorubicin): modest synergy | synergy with olaparib (H526 cells [1]; combination with the PARP inhibitor olaparib): modest synergy | synergy when dosed with itself (H526 cells [1]; compound dosed with itself (control)): no synergy was observed | synergy with pictilisib (H526 cells [1]; p53 mutant, combination with the PI3K inhibitor pictilisib): strongly synergized | synergy with taselisib (H526 cells [1]; p53 mutant, combination with the PI3K inhibitor taselisib): strongly synergized | synergy with AZD 1208 (H526 cells [1]; p53 mutant, combination with the PIM kinase inhibitor AZD 1208): strongly synergized | levels of phosphorylated histone H2AX (γ-H2AX) ([2]; USP7 inhibitor alone): did not increase levels of phosphorylated histone H2AX (γ-H2AX) | levels of γ-H2AX ([2]; combination of the USP7 inhibitor and carboplatin): increased γ-H2AX | levels of phosphorylated S6 (Ser235/236) [3]: decreased levels of phosphorylated S6 (Ser235/236) | apoptosis (caspase-3/7 induction, sub-G1 population) (H526 cells [4]): induced apoptosis in H526 cells in a dose-dependent manner | transcriptomic changes (RNASeq) (H526 cells [5]): upregulation of a large number of genes normally silenced by the polycomb repressive complex 2 (PRC2)
